Consider two substances from patent publication US9434769B2, “Peptide compositions and methods for inhibiting herpesvirus infection” (priority 2009, dated 2016).

Read-outs that look alike come from different tables or passages of the source.

The test system of data set [1] is HCMV TRpMIA. Briefly: Inhibition of HCMV TRpMIA infection of HFF cells (IE-1/IE-2 positive cells). The class given is cell-based, Human Cytomegalovirus (HCMV). To be noted: for significance of inhibition of infection: vs non-treated infected control, 24 hours post-infection. As for the experimental part:
In order to assess the ability of the peptides of the present invention to inhibit a clinically significant HCMV (HCMV TRpMIA), Peptide 174-200 (SEQ ID NO:3), Peptide 233-263 (SEQ ID NO: 4), and Peptide 264-291 (SEQ ID NO: 5), were tested for inhibition of HCMV TRpMIA infection of HFF cells under the assay conditions similar to these described in Example 2 for the Towne strain of HCMV, above. In particular, HFF cells were plated in 96-well plates at a density of about 10,000 cells-per-well about 24 hours […]. Individual inhibitory peptides were evaluated against 0.5 MOI HCMV TRpMIA preincubated with various concentrations in the range of about 0.078 micromolar to about 100 micromolar. The results obtained from these assays are shown in FIG. 13, FIG. 14, and FIG. 15 for Peptide 174-200, Peptide 233-263, and Peptide 264-291, respectively. The degree of HCMV infection was determined by evaluating the number of cells expressing immediate-early 1 (IE-1) or IE-2 HCMV proteins 24 hours post-infection. Treatments resulting in significant reductions in the number of cells that were positive for IE 1, IE-2, or both, compared to non-treated control HCMV infected cells, are denoted by a * (p<0.05), ** (p<0.01), and *** (p<0.001, one-way ANOVA and Tukey's post test). Variants and derivatives of Peptide 233-263 (SEQ ID NO: 4) also were prepared and tested in the same assay. The sequences of the tested variants and derivatives are shown in Table 4, with additions or modifications from SEQ ID NO: 4 shown in boldface type.

Data set [2] has as its system Towne GFP strain of HCMV. The class given is cell-based, Human Cytomegalovirus (HCMV). To be noted: for inhibition of viral infection: HFF cells, MOI 0.5, 48 hours post infection. As for the experimental part: The Towne strain of HCMV containing the Green Fluorescent Protein (GFP) expression cassette was obtained from Dr. Dan Streblow at the Oregon Health Science University and was propagated in human foreskin fibroblast (HFF) cells. Viral supernatants were collected, centrifuged to clear cell debris, and filtered through a 0.45 μm filter. HFF cells were grown in Dulbecco's modified Eagle medium (DMEM) supplemented with 10% fetal bovine serum (FBS), penicillin G (100 U/mL), streptomycin ([…]), and GLUTAMAX™ L-glutamine supplement (2 mM) from Invitrogen.
Human foreskin fibroblasts were seeded at the density of about 3.5×10^5 cells in each well of a 24-well plate about 24 hours prior to infection. The HFF cells were washed with 1×DPBS, and mock or virus infected for about 90 minutes at room temperature (RT) with the Towne GFP strain of HCMV at about 0.5 multiplicity of infection (MOI), preincubated with a range of concentrations of inhibitory peptides at about 37° C. for about 90 minutes. After the infection, virus mixture was removed and 10% FBS complete DMEM was added to each well and cells were incubated at about 37° C. for about 48 hours. GFP positive cells were visualized about 48 hours post infection by fluorescence microscopy and then quantified using flow cytometry. […] HFF cells were trypsinized, centrifuged, and resuspended in 1% FBS-Dulbecco's phosphate buffered saline (DPBS). GFP positive cells were quantified using flow cytometry (CYTOMICS FC 500 from Beckman Coulter, Fullerton, Calif.).
All of the synthetic peptides were tested at the following concentrations: about 100 μM, 50 μM, 25 μM, 10 μM, 5 μM, 2.5 μM, 1.25 μM, 0.625 μM, 0.3125 μM, 0.156 μM, and 0.078 μM.

Data set [3] concerns HSV-1 McIntyre strain. As to the kind of experiment: Inhibition of HSV-1 infection of Vero cells (Crystal Violet staining). The class given is cell-based, Herpes Simplex Virus 1 (HSV-1). To be noted: MOI 0.001, peptide 2.5 to 100 μM, 48 hours. As for the experimental part:
FIG. 6 illustrates inhibition of HSV-1 infection by HCMV gB peptides. To evaluate the ability of newly designed HCMV gB-specific peptide to inhibit HSV-1 infection, Vero cells were infected for about 90 minutes at room temperature with HSV-1 (McIntyre strain; MOI=0.001) that was preincubated with a range of concentrations of four different synthetic peptides at about 37° C. for about 90 minutes. Each treatment was done in triplicate, where A=media, B=HSV-1 MOI of 0.001, C=100 μM peptide and virus, D=50 μM peptide and virus, E=25 μM peptide and virus, F=10 μM peptide and virus, G=5 μM peptide and virus, H=2.5 μM peptide and virus. HCMV gB peptides (Peptide 174-200 (SEQ ID NO: 3), Peptide 233-263 (SEQ ID NO: 4), and Peptide 264-291 (SEQ ID NO: 5)) that are within domain II were inhibitory against HSV-1 infection. Peptide 476-494 (SEQ ID NO: 7) corresponds to trimerization domain of HCMV gB that contains extended α-helices important in the formation of HCMV gB homotrimer during fusion of HCMV virion and lipid membrane of the host cell. Overlapping inhibitory HSV-1 peptides span regions 496-510 and 501-515 of HSV-1 gB (SEQ ID NO: 8) and are analogous to HCMV gB Peptide 476-494 (SEQ ID NO: 7).
To evaluate the ability of HCMV gB peptides to inhibit infection by HSV-1, Vero cells were plated at a density of about 1.5×10^5 cells in each well of a 24 well-plate 24 hours prior to infection. The cells were washed and mock- or virus-infected for about 90 minutes at room temperature with HSV-1 McIntyre strain (ATCC) of about 0.001 MOI preincubated with a range of concentrations of four different synthetic peptides at about 37° C. for about 90 minutes. After exposure to the virus, the virus mixture was removed and the cells were overlayed with 2% FBS MEM containing 1% methylcellulose. Cells were incubated for about 48 hours at about 37° C. After about 48 hours, the cells were fixed, stained with Crystal Violet, and air dried.
In FIG. 6, each treatment was done in triplicate, where A=media, B=HSV-1 MOI of 0.001, C=100 μM peptide and virus, D=50 μM peptide and virus, E=25 μM peptide and virus, F=10 μM peptide and virus, G=5 μM peptide and virus, H=2.5 μM peptide and virus. […] Peptide 476-494 (SEQ ID NO: 7) corresponds to the trimerization domain of HCMV gB, which contains extended α-helices important in the formation of HCMV gB homotrimer during fusion of HCMV virion and lipid membrane of the host cell. Overlapping inhibitory HSV-1 peptides that span regions 496-510 and 501-515 of the HSV-1 gB protein (SEQ ID NO: 8) are analogous to HCMV gB peptide 476-494 (SEQ ID NO: 7). As predicted, HCMV Peptide 476-494 (SEQ ID NO: 7) worked best at the concentration of about 2.5 μM.

In data set [4] the test system is HIV-1. As to conditions: cited from earlier work.
The conditions of data set [5]: pregnancy; cited from earlier work.

For “WHSRGSTWLYRETANLNAMLTITTARSKYPY [Peptide 233-263]”, the “significance of inhibition of infection” value in data set [1] (5 micromolar) was “* (* (p<0.05))”; in data set [1] (10 micromolar) it was “*** (*** (p<0.001, one-way ANOVA and Tukey's post test))”; in data set [1] (25 micromolar), “*** (*** (p<0.001, one-way ANOVA and Tukey's post test))”; in data set [1] (50 micromolar), “*** (*** (p<0.001, one-way ANOVA and Tukey's post test))”; in data set [1] (100 micromolar), “*** (*** (p<0.001, one-way ANOVA and Tukey's post test))”. Besides, the “extent of inhibition of infection” value in data set [1] (50 to 100 micromolar) is reported as “almost complete inhibition”. Also, the “inhibition of infection seen in fluorescent and bright light images (FIG. 4)” value in data set [2] (100 μM, MOI 0.5, 48 hours post-infection) was “effectively inhibited infection of the cells”. In addition, the figures for the “inhibition of viral infection” value in data set [2] (peptide 2.5 μM), in data set [2] (peptide 50 μM) and in data set [2] (peptide 100 μM) were “about 60%”, “about 92%” and “about 97%”, respectively. The “inhibition of HSV-1 infection” value in data set [3] is “inhibited HSV-1 infection”.
Consider enfuvirtide, for which, in data set [4], the “vertical transmission of HIV-1 in pregnancy” value is “prevents vertical transmission of HIV-1 in pregnancy”. Moreover, the “crossing of the placenta” value in data set [5] is “does not cross the placenta”.
